Six compounds from ChEMBL document CHEMBL1144960, “Studies on the synthesis and anti-Osteoporosis of estrogen-GHRPs linkers” (2003) can be followed below.

Common to all, as to format: functional
For assay [1], the species on record is Rattus norvegicus. Kind of assay: Percentage content of calcium in femur tested in the compound using male ICR rats when compared to vehicle.
Assay [2] concerns Rattus norvegicus. Put plainly: Weight of rat femur tested after intramuscular administration of 18 ug/kg of compound when compared to vehicle.
The subject of assay [3] is Rattus norvegicus. Kind of assay: Activity of alkaline phosphatase (ALP) tested in serum of rat when 18 ug/kg of compound was administered intramuscularly.
Assay [4] has as its system Rattus norvegicus. Put plainly: Weight of rat femur ash tested after intramuscular administration of 18 ug/kg of compound when compared to vehicle.
Assay [5] deals with Rattus norvegicus. Kind of assay: Weight of rat body tested after intramuscular administration of 18 ug/kg of compound when compared to vehicle.
Assay [6] relates to Rattus norvegicus. Put plainly: Activity tested for the content of calcium in serum of rat when 18 ug/kg of compound was administered intramuscularly when compared to vehicle.
For assay [7], the species on record is Rattus norvegicus. Kind of assay: Percentage content of phosphor in femur tested in the compound using male ICR rats.
In assay [8] the test system is Rattus norvegicus. Kind of assay: Weight of rat body tested after intramuscular administration of 18 ug/kg of compound when compared to prednisone.
Assay [9] concerns Rattus norvegicus. Kind of assay: Activity tested for the content of calcium in serum of rat when 18 ug/kg of compound was administered intramuscularly when compared to prednisone.

Molecules are shown by their SMILES.

`C[C@]12CC[C@@H]3c4ccc(O)cc4CCC3[C@@H]1CCC2=O` (single isomer, unassigned) [ESTRONE]: the “Ca2+” value in the assay listed under Rattus norvegicus [1] came to 40.83%; with Rattus norvegicus [6], 2.28 mM. In addition, the Weight turned out to be 33.93 mg in the assay with Rattus norvegicus [2], 21.69 mg in the assay on Rattus norvegicus [4] and 33.62 g in the assay on Rattus norvegicus [5]. In the assay with Rattus norvegicus [3], this compound gave an Activity of 45.84. The compound further showed a Phosphor in the assay filed under Rattus norvegicus [7] of 22.02%.

Regarding `C[C@]12C=CC(=O)C=C1CC[C@@H]1[C@@H]2C(=O)C[C@@]2(C)[C@H]1CC[C@]2(O)C(=O)CO` [PREDNISONE], the “Ca2+” value came out at 39.54% in the assay filed under Rattus norvegicus [1] and 2.42 mM in the assay with Rattus norvegicus [6]. For the same compound, the Weight came out at 33.39 mg in the assay on Rattus norvegicus [2], 21.26 mg in the assay with Rattus norvegicus [4] and 31.89 g in the assay with Rattus norvegicus [5]. Also, the Activity in the assay on Rattus norvegicus [3] turned out to be 48.7. Besides, the Phosphor in the assay listed under Rattus norvegicus [7] came out at 20.87%.

Consider `C[C@]12CC[C@@H]3c4ccc(O)cc4CC[C@H]3[C@@H]1CCC2O` (single isomer, unassigned) [ESTRADIOL], for which the results for the Weight in the assay on Rattus norvegicus [8], in the assay with Rattus norvegicus [2] and with Rattus norvegicus [4] were 35.39 g, 35.09 mg and 22.82 mg, respectively. The “Ca2+” value was 42.11% in the assay filed under Rattus norvegicus [1] and 2.13 mM in the assay on Rattus norvegicus [9]. In the assay on Rattus norvegicus [3], this compound registered an Activity of 44.1. Also, the Phosphor in the assay listed under Rattus norvegicus [7] came to 21.85%.

In the assay on Rattus norvegicus [3], `CC(C)C[C@H](NC(=O)[C@H](Cc1ccccc1)NC(=O)CNC(=O)CNC(=O)[C@@H](N)Cc1ccc(O)cc1)C(=O)O` [ENKEPHALIN] displayed an Activity of 37.7. The Weight with Rattus norvegicus [4] was 21.74 mg; with Rattus norvegicus [5] it was 33.29 g. This compound also displayed a Phosphor in the assay filed under Rattus norvegicus [7] of 22.27%.

In the case of `CC(C)C[C@H](NC(=O)[C@H](Cc1ccccc1)NC(=O)CNC(=O)CNC(=O)[C@@H](N)Cc1ccc(O)cc1)C(N)=O` [[LEU5]ENKEPHALIN], the Ca2+ with Rattus norvegicus [9] is 2.01 mM. Moreover, the Activity in the assay with Rattus norvegicus [3] was determined as 34.22. Also, the Weight is 22.8 mg in the assay on Rattus norvegicus [4] and 34.16 g in the assay with Rattus norvegicus [5]. Further, the Phosphor in the assay listed under Rattus norvegicus [7] came out at 22.35%.

Consider `CC(C)C[C@H](NC(=O)[C@H](Cc1ccccc1)NC(=O)CNC(=O)CNC(=O)[C@H](Cc1ccc(O)cc1)NC(=O)CCC(=O)O[C@H]1CC[C@H]2[C@@H]3CCc4cc(O)ccc4[C@H]3CC[C@]12C)C(N)=O`, for which the Ca2+ with Rattus norvegicus [9] came out at 1.92 mM.
